In patent US7605154B2, “Substituted Thiazolo [4,5-d]pyrimidines as protein kinase inhibitors” (Janssen Pharmaceutica N.V., priority 2005, dated 2009) one finds IC50 data, which are given here for 31 molecules.

What is called IC50 is the point on the concentration scale where inhibition reaches its midpoint. High values mean lower potency, low ones higher potency.

In this assay the target is T1, EGFR (Homo sapiens, UniProt P00533).
T1 construct: started at nucleotide 2189 (corresponding to amino acid 667) and ended at the termination codon; made in house; host or cells: Sf9 insect cells (baculovirus)
T1 sequence (P00533 667-1210 limits assumed): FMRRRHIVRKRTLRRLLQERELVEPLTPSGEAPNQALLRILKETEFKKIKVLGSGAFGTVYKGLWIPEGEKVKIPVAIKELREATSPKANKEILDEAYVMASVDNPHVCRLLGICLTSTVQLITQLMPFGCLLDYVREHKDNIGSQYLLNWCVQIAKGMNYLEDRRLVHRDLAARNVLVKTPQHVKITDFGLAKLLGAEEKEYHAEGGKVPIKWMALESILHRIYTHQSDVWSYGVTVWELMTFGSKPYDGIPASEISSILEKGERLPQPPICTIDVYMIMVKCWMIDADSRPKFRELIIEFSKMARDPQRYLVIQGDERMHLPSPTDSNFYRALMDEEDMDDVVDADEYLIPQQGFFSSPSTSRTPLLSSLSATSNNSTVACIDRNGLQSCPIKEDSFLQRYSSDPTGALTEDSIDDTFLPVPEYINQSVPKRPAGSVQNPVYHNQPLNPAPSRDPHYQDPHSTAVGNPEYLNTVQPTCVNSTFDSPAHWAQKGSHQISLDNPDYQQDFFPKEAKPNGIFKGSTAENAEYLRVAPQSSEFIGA
Briefly: EGFR Kinase Assay. Type of assay: biochemical. The settings on record: GST-EGFR, 5 μM ATP. The text has this: The portion was PCR amplified with primers that added the lambda attB sequences to each end, recombined into an entry vector, then into a, GST destination vector (as described in Gateway Technologies Manual by Invitrogen Corporation, Carlsbad, Calif.).
The destination vector was recombined in the DH10BAC strain of bacteria to produce a bacmid. The bacmid was transfected into Sf 9 cells and the supernatant containing the baculovirus was collected. The GSTEGFR protein was purified using large cultures of Sf 9 cells infected with stock virus. After an appropriate period of time, the cells were collected and lysed. The GSTEGFR was then purified from the lysate on Glutathione-Sepharose columns (as described by Amersham Biosciences, Buckinghamshire, United Kingdom).
The free biotin was separated from the biotinylated polyGluTyr on a gel filtration column.
A mixture of a 10× kinase buffer (500 mM Tris at pH 8.0, 100 mM Magnesium Chloride and 1 mM Sodium Vanadate), DTT (1 mM final from 500 mM stock), ATP (5 μM final from 10 mM stock), biotinylated polyGluTyr (10 μg/μL stock), γ-^33P ATP (10 μCi/μL stock) and water was added to each well (90 μL/well) of a Streptavidin Flashplate (Perkin Elmer, Wellesley, Mass.).
Test compound in 100% DMSO (2 μL) was added to the appropriate wells. Diluted GSTEGFR (1:300 dilution in 50 mM Tris at pH 8.0 and 0.1% bovine serum albumin) (10 μL) was added to the wells to initiate the reactions.
The plates were incubated at 30° C. for 1 hr with shaking. The reacted contents were removed and the plates were sequentially washed three times with a 1×PBS stop buffer (300 μL without Magnesium and Calcium) and 100 mM EDTA. After the final wash, the same stop buffer (200 μL) was added to the wells. The plates were then sealed and read on the TopCount scintillation counter.
Test compounds were assayed in triplicate at 16 concentrations at half-log dilutions starting at 200 uM. A maximum and minimum signal for the assay was determined on each plate. The percent inhibition of a test compound was calculated according to the formula
For a series of test concentrations, the IC50 was derived by graphing percent inhibition against the log of the concentrations tested for a given compound.
`Fc1ccc(Nc2ncnc3nc(Nc4ccc(OCCN5CCCC5)cc4)sc23)cc1Cl` [Cpd 15, N^7-(3-chloro-4-fluoro-phenyl)-N^2-[4-(2-pyrrolidin-1-yl-ethoxy)-phenyl]-thiazolo[4,5-d]pyrimidine-2,7-diamine] displayed a concentration for half-maximal inhibition (IC50) of 90.1 nM.

In turn, `COc1ccc(Nc2nc3ncnc(Nc4ccc(F)c(Cl)c4)c3s2)cc1` [Cpd 12, N^7-(3-chloro4-fluoro-phenyl)-N^2-(4-methoxy-phenyl)-thiazolo[4,5-d]pyrimidine-2,7-diamine] showed an IC50 of 117 nM. Regarding `NS(=O)(=O)c1ccc(Nc2nc3ncnc(Nc4ccc(N5CCOCC5)c(Cl)c4)c3s2)cc1` [Cpd 83, 4-[7-(3-chloro-4-(morpholin-4-yl)-phenylamino)-thiazolo[4,5-d]pyrimidin-2-ylamino]-benzenesulfonamide], half-maximal inhibition (IC50) required 3800 nM. Regarding `CN(C)C(=O)c1ccc(Nc2nc3ncnc(Nc4ccc(F)c(Cl)c4)c3s2)cc1` [Cpd 27, 4-[7-(3-chloro-4-fluoro-phenylamino)-thiazolo[4,5-d]pyrimidin-2-ylamino]-N,N-dimethyl-benzamide], half-maximal inhibition (IC50) required 15 nM.

Molecule `Fc1ccc(Nc2ncnc3nc(Nc4ccc(OCCCN5CCN(c6ccc(Cl)cc6)CC5)cc4)sc23)cc1Cl` [Cpd 16, N^7-(3-chloro-4-fluoro-phenyl)-N^2-(4-{3-[4-(4-chloro-phenyl)-piperazin-1-yl]-propoxy}-phenyl)-thiazolo[4,5-d]pyrimidine-2,7-diamine] showed an IC50 of 165 nM.

Molecule `Oc1ccc(Nc2nc3ncnc(Nc4ccc(F)c(Cl)c4)c3s2)cc1` [Cpd 13, 4-[7-(3-chloro4-fluoro-phenylamino)-thiazolo[4,5-d]pyrimidin-2-ylamino]-phenol] gave a half-inhibitory concentration (IC50) of 95 nM. The molecule `COc1ccc(Cl)cc1Nc1ncnc2nc(Nc3ccc(CN4CCOCC4)cc3)sc12` [Cpd 56, N^7-(5-chloro-2-methoxy-phenyl)-N^2-(4-morpholin-4-ylmethyl-phenyl)-thiazolo[4,5-d]pyrimidine-2,7-diamine] showed an IC50 of 36 nM. The figure for `C#Cc1cccc(Nc2ncnc3nc(Nc4ccc(S(=O)(=O)N5CCOCC5)cc4)sc23)c1` [Cpd 45, N^7-(3-ethynyl-phenyl)-N^2-[4-(morpholine-4-sulfonyl)-phenyl]-thiazolo[4,5-d]pyrimidine-2,7-diamine] is 22.5 nM; for `C#Cc1cccc(Nc2ncnc3nc(Nc4ccc(CN5CCN(C)CC5)cc4)sc23)c1` [Cpd 47, N^7-(3-ethynyl-phenyl)-N^2-[4-(4-methyl-piperazin-1-ylmethyl)-phenyl]-thiazolo[4,5-d]pyrimidine-2,7-diamine] it is 18.2 nM. Take `Fc1ccc(Nc2ncnc3nc(Nc4ccc(N5CCOCC5)cc4)sc23)cc1Cl` [Cpd 1, N^7-(3-chloro-4-fluoro-phenyl)-N^2-(4-morpholin-4-yl-phenyl)-thiazolo[4,5-d]pyrimidine-2,7-diamine]: the concentration for half-maximal inhibition (IC50) is 44 nM. As to `C#Cc1cccc(Nc2ncnc3nc(Nc4ccc(Cn5ccnc5CC)cc4)sc23)c1` [Cpd 48, N^2-[4-(2-ethyl-imidazol-1-ylmethyl)-phenyl]-N^7-(3-ethynyl-phenyl)-thiazolo[4,5-d]pyrimidine-2,7-diamine], the half-inhibitory concentration (IC50) stood at 9 nM. `N#Cc1ccc(Nc2nc3ncnc(Nc4cccc(Cl)c4)c3s2)cc1` [Cpd 93, 4-[7-(3-chloro-phenylamino)-thiazolo[4,5-d]pyrimidin-2-ylamino]-benzonitrile] returned an IC50 of 25.5 nM. For the molecule `NS(=O)(=O)c1ccc(Nc2nc3ncnc(Nc4ccc(CCN5CCOCC5)cc4)c3s2)cc1` [Cpd 85, 4-[7-(4-(morpholin-4-yl)ethyl-phenylamino)-thiazolo[4,5-d]pyrimidin-2-ylamino]-benzenesulfonamide], the midpoint of inhibition, the IC50, lay at 10100 nM. The figure for `C#Cc1cccc(Nc2ncnc3nc(Nc4ccc(CN(C)C5CCOCC5)cc4)sc23)c1` [Cpd 63] is 10.7 nM; for `C#Cc1cccc(Nc2ncnc3nc(Nc4ccc(CN(CCOC)CCOC)cc4)sc23)c1` [Cpd 38, N^2-(4-{[bis-(2-methoxy-ethyl)-amino]-methyl}-phenyl)-N^7-(3-ethynyl-phenyl)-thiazolo[4,5-d]pyrimidine-2,7-diamine] it is 28.5 nM. Consider `Fc1ccc(Nc2ncnc3nc(Nc4ccc(CN5CCSCC5)cc4)sc23)cc1Cl` [Cpd 20, N7-(3-chloro-4-fluoro-phenyl)-N^2-(4-thiomorpholin4-ylmethyl-phenyl)-thiazolo[4,5-d]pyrimidine-2,7-diamine], for which the IC50 is 49.3 nM. The figure for `NS(=O)(=O)c1ccc(Nc2nc3ncnc(Nc4ccccc4)c3s2)cc1` [Cpd 80, 4-[7-(phenylamino)-thiazolo[4,5-d]pyrimidin-2-ylamino]-benzenesulfonamide] is 82.5 nM; for `NCC1CCN(Cc2ccc(Nc3nc4ncnc(Nc5ccc(F)c(Cl)c5)c4s3)cc2)CC1` [Cpd 22, N^2-[4-(4-aminomethyl-piperidin-1-ylmethyl)-phenyl]-N^7-(3-chloro-4-fluoro-phenyl)-thiazolo[4,5-d]pyrimidine-2,7-diamine] it is 9.3 nM; for `CN1CCN(Cc2ccc(Nc3nc4ncnc(Nc5ccc(F)c(Cl)c5)c4s3)cc2)CC1` [Cpd 5, N^7-(3-chloro-4-fluoro-phenyl)-N^2-[4-(4-methyl-piperazin-1-ylmethyl)-phenyl]-thiazolo[4,5-d]pyrimidine-2,7-diamine] it is 18.4 nM.

In turn, `CN(Cc1ccc(Nc2nc3ncnc(Nc4ccc(F)c(Cl)c4)c3s2)cc1)C[C@H]1CCCO1` [Cpd 59, N^7-(3-chloro-4-fluoro-phenyl)-N^2-(4-{[methyl-(2R)-(tetrahydro-furan-2-ylmethyl)-amino]-methyl}-phenyl)-thiazolo[4,5-d]pyrimidine-2,7-diamine] came in with an IC50 of 11 nM.

Take `NS(=O)(=O)c1ccc(Nc2nc3ncnc(Nc4ccc(Cl)cc4F)c3s2)cc1` [Cpd 76, 4-[7-(4-chloro-2-fluoro-phenylamino)-thiazolo[4,5-d]pyrimidin-2-ylamino]-benzenesulfonamide]: the IC50 was determined as 40.2 nM.

Turning to `Nc1ccc(Nc2nc3ncnc(Nc4ccc(F)c(Cl)c4)c3s2)cn1` [Cpd 71, N^2-(6-amino-pyridin-3-yl)-N^7-(3-chloro-4-fluoro-phenyl)-thiazolo[4,5-d]pyrimidine-2,7-diamine], the IC50 was determined as 44 nM. The figure for `CCc1nccn1Cc1ccc(Nc2nc3ncnc(Nc4cccc(Cl)c4)c3s2)cc1` [Cpd 7, N^7-(3-chloro-phenyl)-N^2-[4-(2-ethyl-imidazol-1-ylmethyl)-phenyl]-thiazolo[4,5-d]pyrimidine-2,7-diamine] is 13 nM.

`Clc1cccc(Nc2ncnc3nc(Nc4ccc(CN5CCOCC5)cc4)sc23)c1` [Cpd 57, N^7-(3-chloro-phenyl)-N^2-(4-morpholin-4-ylmethyl-phenyl)-thiazolo[4,5-d]pyrimidine-2,7-diamine] displayed an IC50 of 7 nM. Turning to `O=[N+]([O-])c1cc(Nc2ncnc3nc(Nc4ccc(CN5CCOCC5)cc4)sc23)ccc1F` [Cpd 65, N^7-(4-fluoro-3-nitro-phenyl)-N^2-(4-morpholin-4-ylmethyl-phenyl)-thiazolo[4,5-d]pyrimidine-2,7-diamine], it took 43.4 nM to reach half-maximal inhibition (IC50).

With `NS(=O)(=O)c1ccc(Nc2nc3ncnc(Nc4ccc(Br)cc4F)c3s2)cc1` [Cpd 77, 4-[7-(4-bromo-2-fluoro-phenylamino)-thiazolo[4,5-d]pyrimidin-2-ylamino]-benzenesulfonamide], the half-maximal inhibitory concentration (IC50) was found to be 87 nM. The value for `C#Cc1cccc(Nc2ncnc3nc(Nc4ccc(CN5CCCCC5)cc4)sc23)c1` [Cpd 43, N^7-(3-ethynyl-phenyl)-N^2-(4-piperidin-1-ylmethyl-phenyl)-thiazolo[4,5-d]pyrimidine-2,7-diamine] was 7.8 nM; that for `C#Cc1cccc(Nc2ncnc3nc(Nc4ccc(CNCC5COC(C)(C)O5)cc4)sc23)c1` (stereo not shown) [Cpd 62, N^2-(4-{[(2,2-dimethyl-[1,3]dioxolan-4-ylmethyl)-amino]-methyl}-phenyl)-N^7-(3-ethynyl-phenyl)-thiazolo[4,5-d]pyrimidine-2,7-diamine] was 6.95 nM. As for `CCOC(=O)C1CCN(Cc2ccc(Nc3nc4ncnc(Nc5ccc(F)c(Cl)c5)c4s3)cc2)CC1` [Cpd 29, 1-{4-[7-(3-chloro-4-fluoro-phenylamino)-thiazolo[4,5-d]pyrimidin-2-ylamino]-benzyl}-piperidine-4-carboxylic acid ethyl ester], the IC50 turned out to be 27.8 nM. `NS(=O)(=O)c1ccc(Nc2nc3ncnc(Nc4cc(Cl)cc(Cl)c4)c3s2)cc1` [Cpd 81, 4-[7-(3,5-dichloro-phenylamino)-thiazolo[4,5-d]pyrimidin-2-ylamino]-benzenesulfonamide] yielded a half-maximal inhibitory concentration (IC50) of 116 nM. Consider `COc1ccc(Nc2nc3ncnc(Nc4ccc(F)c(Cl)c4)c3s2)cn1` [Cpd 70, N^7-(3-chloro-4-fluoro-phenyl)-N^2-(6-methoxy-pyridin-3-yl)-thiazolo[4,5-d]pyrimidine-2,7-diamnine], for which 19.6 nM corresponded to half-maximal inhibition (IC50).
